Patent US12570655B2, “Cysteine covalent modifiers of AKT1 and uses thereof” (Terremoto Biosciences, Inc., priority 2023, dated 2026)
Read-outs that look alike come from different tables or passages of the source.

Tests used:
Type in all cases: cell-based
[1] = target: T1, AKT1 WT (Homo sapiens, UniProt P31749); test: Live cell AKT1 WT target engagement by NanoBRET competitive probe displacement; conditions: HEK293 cells transfected with kinase-NanoLuciferase fusion, 2 h at 37° C.
T1 construct: expressed in transfected cells; host or cells: HEK293
T1 sequence (P31749 whole entry, the tested form may be a part): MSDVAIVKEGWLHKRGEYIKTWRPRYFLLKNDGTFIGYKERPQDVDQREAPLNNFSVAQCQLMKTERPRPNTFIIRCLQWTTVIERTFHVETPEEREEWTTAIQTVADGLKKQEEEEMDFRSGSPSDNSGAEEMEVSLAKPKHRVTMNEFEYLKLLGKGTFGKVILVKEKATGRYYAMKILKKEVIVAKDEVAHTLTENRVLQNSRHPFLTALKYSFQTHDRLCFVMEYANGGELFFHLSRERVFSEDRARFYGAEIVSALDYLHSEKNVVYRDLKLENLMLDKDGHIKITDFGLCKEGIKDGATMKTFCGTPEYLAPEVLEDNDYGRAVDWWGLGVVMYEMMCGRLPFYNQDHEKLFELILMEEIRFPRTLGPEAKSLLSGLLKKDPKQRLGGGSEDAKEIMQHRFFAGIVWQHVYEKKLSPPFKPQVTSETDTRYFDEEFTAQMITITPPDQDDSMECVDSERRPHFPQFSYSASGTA
Procedure, shortened: (§1)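 IC50 reflects displacement of a fluorescent ATP-competitive tracer, dosed near its EC50, from kinase–NanoLuciferase fusions in live HEK293 cells. Cells were incubated with compound and tracer for 2 h at 37 °C, then E600/E460 BRET was read.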

[2] = target: T2, AKT2 (Homo sapiens, UniProt P31751); test: Live cell AKT2 target engagement by NanoBRET competitive probe displacement; conditions: HEK293 cells transfected with kinase-NanoLuciferase fusion, 2 h at 37° C.
T2 construct: expressed in transfected cells; host or cells: HEK293
T2 sequence (P31751 whole entry, the tested form may be a part): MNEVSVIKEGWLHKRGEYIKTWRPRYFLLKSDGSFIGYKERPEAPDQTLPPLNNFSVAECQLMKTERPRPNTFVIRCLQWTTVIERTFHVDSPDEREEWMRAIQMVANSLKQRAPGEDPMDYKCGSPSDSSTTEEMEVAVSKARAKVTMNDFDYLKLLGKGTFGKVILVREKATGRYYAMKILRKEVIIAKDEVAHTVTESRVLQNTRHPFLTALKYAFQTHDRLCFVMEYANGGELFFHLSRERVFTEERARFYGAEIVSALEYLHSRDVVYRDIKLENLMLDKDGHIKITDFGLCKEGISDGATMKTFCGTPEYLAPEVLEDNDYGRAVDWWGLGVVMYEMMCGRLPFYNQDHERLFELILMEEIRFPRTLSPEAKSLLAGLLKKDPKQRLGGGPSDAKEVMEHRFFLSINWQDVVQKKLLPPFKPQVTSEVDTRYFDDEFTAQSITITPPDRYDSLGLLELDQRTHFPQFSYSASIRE
Description: Determining Live Cell AKT1 E17K, AKT1 WT, and AKT2 Target Engagement by NanoBRET Competitive Probe Displacement.
Live cell target engagement assays were performed as described (Vasta, J. D. et al. Cell Chem Biol 2018, 25(11), 206-214). Briefly, HEK293 cells were transfected with plasmids encoding kinase-NanoLuciferase fusion proteins overnight. Cells were then treated with serial dilutions of compound and an ˜EC50 concentration of fluorescently-tagged ATP-competitive tracer (Promega). After incubation for 2 h at 37° C., luciferase substrate and extracellular luciferase inhibitor were added to all wells, and luminescent intensity at 460 nm and 600 nm were measured on a multimode plate-reader. The ratio of E600/E460 was calculated to give the tracer engagement signal (BRET). IC50 values were calculated by fitting BRET values to a log(inhibitor) vs. response Hill equation.

[3] = target: T3, AKT1 E17K (Homo sapiens, UniProt P31749, E17K); test: Live cell AKT1 E17K target engagement by NanoBRET competitive probe displacement; conditions: HEK293 cells transfected with kinase-NanoLuciferase fusion, 2 h at 37° C.
T3 construct: expressed in transfected cells; host or cells: HEK293
T3 sequence (P31749 whole entry E17K, the tested form may be a part): as the sequence (P31749 whole entry, the tested form may be a part) above, with E17K counted along it
Procedure, shortened: as §1

[4] = tested on: LAPC4 prostate cancer cells; test: Antiproliferative effects in LAPC4 cells (CellTiter Glo); conditions: LAPC4 cells (AKT1 E17K allele), read-out: LAPC4 proliferation IC50
Procedure, shortened: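 Seed 1,000 cells/well in IMDM/12% FBS/1% P/S; add compound dilutions (DMSO); incubate 72 h; read intracellular ATP with CellTiter Glo; fit luminescence to log(inhibitor)-response Hill curve for IC50.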

Compound | IC50 [1] [µM] | IC50 [2] [µM] | IC50 [3] [µM] | IC50 ([4]; Homo sapiens, LAPC4, 72 h) [µM] | IC50 ([4]; 72 h) [µM]
C=CC(=O)N1CCC(N[C@H]2CCc3cc(-n4c(-c5cccnc5N)nc5ccc(-n6ccc(C7CC7)n6)nc54)ccc32)CC1 [Example 208, (S)-1-(4-((5-(2-(2-aminopyridin-3-yl)-5-(3-cyclopropyl-1H-pyrazol-1-yl)-3H-imidazo[4,5-b]pyridin-3-yl)-2,3-dihydro-1H-inden-1-yl)amino)piperidin-1-yl)prop-2-en-1-one] | 0.0778 | 0.0261 | 0.00574 | 0.0698 | –
C=CC(=O)N1CCC(N[C@@H]2c3ccc(-n4c(-c5cccnc5N)nc5ccc(-c6ccn(C(F)F)n6)nc54)cc3CC2F)CC1 (stereo partly drawn) [Example 310, 1-(4-(((1R,2*)-5-(2-(2-aminopyridin-3-yl)-5-(1-(difluoromethyl)-1H-pyrazol-3-yl)-3H-imidazo[4,5-b]pyridin-3-yl)-2-fluoro-2,3-dihydro-1H-inden-1-yl)amino)piperidin-1-yl)prop-2-en-1-one] | 1.48 | 0.277 | 0.0345 | – | 0.553
C=CC(=O)N1C[C@H]2C[C@@H]1CC2N[C@H]1CCc2cc(-n3c(-c4cccnc4N)nc4ccc(-n5cccn5)nc43)ccc21 (single isomer, unassigned) [Example 138, 1-[(1R,4R,5*)-5-{[(1S)-5-[2-(2-aminopyridin-3-yl)-5-(pyrazol-1-yl)imidazo[4,5-b]pyridin-3-yl]-2,3-dihydro-1H-inden-1-yl]amino}-2-azabicyclo[2.2.1]heptan-2-yl]prop-2-en-1-one] | 0.289 | 1.81 | 0.744 | – | 0.963
C=CC(=O)N1CCC(N[C@@H]2c3ccc(-n4c(-c5cccnc5N)nc5ccc(-n6ccc(F)n6)nc54)cc3CC2F)C[C@H]1C (single isomer, unassigned) [Example 275, 1-((2R,4*)-4-(((1R,2*)-5-(2-(2-aminopyridin-3-yl)-5-(3-fluoro-1H-pyrazol-1-yl)-3H-imidazo[4,5-b]pyridin-3-yl)-2-fluoro-2,3-dihydro-1H-inden-1-yl)amino)-2-methylpiperidin-1-yl)prop-2-en-1-one] | 2.62 | 0.0819 | 0.084 | – | 0.326
C=CC(=O)N1CCC(N[C@@H]2c3ccc(-n4c(-c5cccnc5N)nc5ccc(-n6ccc(C7CC7)n6)nc54)cc3CC2F)CC1 (single isomer, unassigned) [Example 297, 1-(4-(((1R,2*)-5-(2-(2-aminopyridin-3-yl)-5-(3-cyclopropyl-1H-pyrazol-1-yl)-3H-imidazo[4,5-b]pyridin-3-yl)-2-fluoro-2,3-dihydro-1H-inden-1-yl)amino)piperidin-1-yl)prop-2-en-1-one] | 0.588 | 0.108 | 0.0238 | 0.509 | –
CN(C)C/C=C/C(=O)N1CCC(N[C@H]2CCc3cc(-n4c(-c5cccnc5N)nc5ccc(-n6cccn6)nc54)ccc32)CC1 [Example 34, (2E)-1-(4-{[(1S)-5-[2-(2-aminopyridin-3-yl)-5-(pyrazol-1-yl)imidazo[4,5-b]pyridin-3-yl]-2,3-dihydro-1H-inden-1-yl]amino}piperidin-1-yl)-4-(dimethylamino)but-2-en-1-one] | 0.0551 | 1.2 | 0.194 | 0.398 | –
C=CC(=O)N(C)c1ccccc1C(=O)N[C@H]1CCc2cc(-n3c(-c4cccnc4N)nc4ccc(-n5cccn5)nc43)ccc21 [Example 4, (S)-N-(5-(2-(2-aminopyridin-3-yl)-5-(1H-pyrazol-1-yl)-3H-imidazo[4,5-b]pyridin-3-yl)-2,3-dihydro-1H-inden-1-yl)-2-(N-methylacrylamido)benzamide] | 0.212 | 3.75 | 0.823 | 4.21 | –
C=CC(=O)Nc1cc(C(F)F)ccc1C(=O)N[C@H]1CCc2cc(-n3c(-c4cccnc4N)nc4ccc(-n5cccn5)nc43)ccc21 [Example 43, (S)-2-acrylamido-N-(5-(2-(2-aminopyridin-3-yl)-5-(1H-pyrazol-1-yl)-3H-imidazo[4,5-b]pyridin-3-yl)-2,3-dihydro-1H-inden-1-yl)-4-(difluoromethyl)benzamide] | 0.317 | > 10 | > 1 | > 10 | –
C=CC(=O)N1CCC(N[C@H]2CCc3cc(-n4c(-c5cccnc5N)nc5ccc(C6CC6)nc54)ccc32)C(C)C1 (single isomer, unassigned) [Example 232, 1-((3*,4*)-4-(((S)-5-(2-(2-aminopyridin-3-yl)-5-cyclopropyl-3H-imidazo[4,5-b]pyridin-3-yl)-2,3-dihydro-1H-inden-1-yl)amino)-3-methylpiperidin-1-yl)prop-2-en-1-one] | 1.08 | 0.168 | 0.0208 | – | 0.651
C=CC(=O)N1CCC(N[C@@H]2c3ccc(-n4c(-c5cccnc5N)nc5ccc(-n6ccc(C7CC7)n6)nc54)cc3CC2F)CC1C(F)F (single isomer, unassigned) [Example 334, 1-((2*,4*)-4-(((1*,2*)-5-(2-(2-aminopyridin-3-yl)-5-(3-cyclopropyl-1H-pyrazol-1-yl)-3H-imidazo[4,5-b]pyridin-3-yl)-2-fluoro-2,3-dihydro-1H-inden-1-yl)amino)-2-(difluoromethyl)piperidin-1-yl)prop-2-en-1-one] | 0.137 | 0.0235 | 0.00675 | – | –

Second part, the compound after the results:

IC50 [1] [µM] | IC50 [2] [µM] | IC50 [3] [µM] | IC50 ([4]; Homo sapiens, LAPC4, 72 h) [µM] | IC50 ([4]; 72 h) [µM] | Compound
0.093 | 0.738 | 0.246 | 0.581 | – | Nc1ncccc1-c1nc2ccc(-n3cccn3)nc2n1-c1ccc2c(c1)CC[C@@H]2NC(=O)c1ccccc1NC(=O)C1=CCCC1 [Example 37, (S)-N-(5-(2-(2-aminopyridin-3-yl)-5-(1H-pyrazol-1-yl)-3H-imidazo[4,5-b]pyridin-3-yl)-2,3-dihydro-1H-inden-1-yl)-2-(cyclopent-1-ene-1-carboxamido)benzamide]
0.297 | 0.0559 | 0.0148 | 0.358 | – | C=CC(=O)NCCc1ccccc1C(=O)N[C@H]1CCc2cc(-n3c(-c4cccnc4N)nc4ccc(-n5cccn5)nc43)ccc21 [Example 268, (S)-2-(2-acrylamidoethyl)-N-(5-(2-(2-aminopyridin-3-yl)-5-(1H-pyrazol-1-yl)-3H-imidazo[4,5-b]pyridin-3-yl)-2,3-dihydro-1H-inden-1-yl)benzamide]
2.54 | 0.309 | 0.0426 | 1.04 | – | C=CC(=O)N1CCC(N[C@H]2CCc3cc(-n4c(-c5cccc(F)c5)nc5ccc(-n6cccn6)nc54)ccc32)CC1 [Example 240, 1-(4-{[(1S)-5-[2-(3-fluorophenyl)-5-(pyrazol-1-yl)imidazo[4,5-b]pyridin-3-yl]-2,3-dihydro-1H-inden-1-yl]amino}piperidin-1-yl)prop-2-en-1-one]
0.307 | 0.0623 | 0.0118 | 0.3 | – | C=CC(=O)N1CCC(N[C@H]2CCc3cc(-n4c(-c5cccnc5N)nc5ccc(-n6cccn6)nc54)ccc32)C(C)(F)C1 (stereo partly drawn) [Example 308, 1-((3*)-4-(((S)-5-(2-(2-aminopyridin-3-yl)-5-(1H-pyrazol-1-yl)-3H-imidazo[4,5-b]pyridin-3-yl)-2,3-dihydro-1H-inden-1-yl)amino)-3-fluoro-3-methylpiperidin-1-yl)prop-2-en-1-one]
1.34 | 0.324 | 0.0565 | 0.748 | – | Nc1ncccc1-c1nc2ccc(-n3cccn3)nc2n1-c1ccc2c(c1)CC[C@@H]2NC1CCN(C(=O)C(F)Cl)CC1 (stereo partly drawn) [Example 173, 1-(4-{[(1S)-5-[2-(2-aminopyridin-3-yl)-5-(pyrazol-1-yl)imidazo[4,5-b]pyridin-3-yl]-2,3-dihydro-1H-inden-1-yl]amino}piperidin-1-yl)-2-chloro-2-fluoroethanone]
0.00984 | 0.0742 | 0.0219 | 0.0756 | – | C=CC(=O)N1CCC(CN[C@H]2CCc3cc(-n4c(-c5cccnc5N)nc5ccc(-n6cccn6)nc54)ccc32)CC1 [Example 68, 1-[4-({[(1S)-5-[2-(2-aminopyridin-3-yl)-5-(pyrazol-1-yl)imidazo[4,5-b]pyridin-3-yl]-2,3-dihydro-1H-inden-1-yl]amino}methyl)piperidin-1-yl]prop-2-en-1-one]
0.0249 | 0.454 | 0.124 | 3.16 | – | C=CC(=O)N1CCC(N[C@H]2CCc3cc(-n4c(-c5cccnc5N)nc5ccc(-c6ncco6)nc54)ccc32)CC1 [Example 109, (S)-1-(4-((5-(2-(2-aminopyridin-3-yl)-5-(oxazol-2-yl)-3H-imidazo[4,5-b]pyridin-3-yl)-2,3-dihydro-1H-inden-1-yl)amino)piperidin-1-yl)prop-2-en-1-one]
